Experimental data from PubChem BioAssay (NCI).
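How tested: cells in 96-well plates exposed to compound for 48 hours at five concentrations. The concentration for 50% growth inhibition is given as GI50. TGI is the concentration that stops growth completely.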

Assays:
Test in all cases: NCI anticancer screen, dose series, 48 h
786-0 renal = system: 786-0 renal
A498 renal = system: A498 renal
A549 NSCLC = system: A549 NSCLC
ACHN renal = system: ACHN renal
BT-549 breast = system: BT-549 breast
CAKI-1 renal = system: CAKI-1 renal
CCRF-CEM leukemia = system: CCRF-CEM leukemia
COLO 205 colon = system: COLO 205 colon
DU-145 prostate = system: DU-145 prostate
EKVX NSCLC = system: EKVX NSCLC
HCC-2998 colon = system: HCC-2998 colon
HCT-116 colon = system: HCT-116 colon
HCT-15 colon = system: HCT-15 colon
HL-60(TB) leukemia = system: HL-60(TB) leukemia
HOP-62 NSCLC = system: HOP-62 NSCLC
HOP-92 NSCLC = system: HOP-92 NSCLC
HS 578T breast = system: HS 578T breast
HT29 colon = system: HT29 colon
IGROV1 ovarian = system: IGROV1 ovarian
K-562 leukemia = system: K-562 leukemia
KM12 colon = system: KM12 colon
LOX IMVI melanoma = system: LOX IMVI melanoma
M14 melanoma = system: M14 melanoma
MALME-3M melanoma = system: MALME-3M melanoma
MCF7 breast = system: MCF7 breast
MDA-MB-231 breast = system: MDA-MB-231 breast
MDA-MB-435 = system: MDA-MB-435
MOLT-4 leukemia = system: MOLT-4 leukemia
NCI-H226 lung = system: NCI-H226 lung
NCI-H23 lung = system: NCI-H23 lung
NCI-H460 lung = system: NCI-H460 lung
NCI-H522 lung = system: NCI-H522 lung
NCI/ADR-RES ovarian = system: NCI/ADR-RES ovarian
OVCAR-3 ovarian = system: OVCAR-3 ovarian
OVCAR-4 ovarian = system: OVCAR-4 ovarian
OVCAR-5 ovarian = system: OVCAR-5 ovarian
OVCAR-8 ovarian = system: OVCAR-8 ovarian
PC-3 prostate = system: PC-3 prostate
RPMI-8226 leukemia = system: RPMI-8226 leukemia
RXF 393 renal = system: RXF 393 renal
SF-268 CNS = system: SF-268 CNS
SF-295 CNS = system: SF-295 CNS
SF-539 CNS = system: SF-539 CNS
SK-MEL-2 melanoma = system: SK-MEL-2 melanoma
SK-MEL-28 melanoma = system: SK-MEL-28 melanoma
SK-MEL-5 melanoma = system: SK-MEL-5 melanoma
SK-OV-3 ovarian = system: SK-OV-3 ovarian
SN12C renal = system: SN12C renal
SNB-19 CNS = system: SNB-19 CNS
SNB-75 CNS = system: SNB-75 CNS
SR leukemia = system: SR leukemia
SW-620 colon = system: SW-620 colon
T-47D breast = system: T-47D breast
TK-10 renal = system: TK-10 renal
U251 CNS = system: U251 CNS
UACC-257 melanoma = system: UACC-257 melanoma
UACC-62 melanoma = system: UACC-62 melanoma
UO-31 renal = system: UO-31 renal

Which GI50 (786-0 renal) does the source give for `CCO/C=N/C1=C(C#N)C(c2ccc(F)cc2)c2sc3c(CC)cccc3c2O1` (stereo unspecified) here?
The GI50 was 651 nM.

What about the TGI (786-0 renal) of the same compound?
The TGI was 13200 nM.

And the GI50 (A498 renal)?
Its GI50 is 199 nM.

What about the TGI (A498 renal) of the same compound?
The TGI was 897 nM.

And the GI50 (A549 NSCLC)?
The GI50 was 518 nM.

What about the TGI (A549 NSCLC) of the same compound?
The TGI was 14200 nM.

And the GI50 (ACHN renal)?
The GI50 was 711 nM.

And the TGI (ACHN renal)?
Its TGI is 14100 nM.

And the GI50 (BT-549 breast)?
Its GI50 is 1690 nM.

What about the TGI (BT-549 breast) of the same compound?
The TGI was 8530 nM.

What about the GI50 (CAKI-1 renal) of the same compound?
The GI50 was 359 nM.

What about the TGI (CAKI-1 renal) of the same compound?
The TGI was 17100 nM.

What about the GI50 (CCRF-CEM leukemia) of the same compound?
The GI50 was 282 nM.

And the TGI (CCRF-CEM leukemia)?
The TGI was 6320 nM.

And the GI50 (COLO 205 colon)?
The GI50 was 400 nM.

And the TGI (COLO 205 colon)?
The TGI was 2840 nM.

And the GI50 (DU-145 prostate)?
The GI50 was 401 nM.

And the TGI (DU-145 prostate)?
The TGI was 13000 nM.

And the GI50 (EKVX NSCLC)?
The GI50 was 488 nM.

And the TGI (EKVX NSCLC)?
Its TGI is 16700 nM.

What about the GI50 (HCC-2998 colon) of the same compound?
Its GI50 is 641 nM.

And the TGI (HCC-2998 colon)?
The TGI was 6650 nM.

And the GI50 (HCT-116 colon)?
Its GI50 is 395 nM.

What about the TGI (HCT-116 colon) of the same compound?
Its TGI is 11200 nM.

What about the GI50 (HCT-15 colon) of the same compound?
Its GI50 is 389 nM.

And the TGI (HCT-15 colon)?
Its TGI is 10900 nM.

And the GI50 (HL-60(TB) leukemia)?
Its GI50 is 337 nM.

And the TGI (HL-60(TB) leukemia)?
The TGI was 5250 nM.

What about the GI50 (HOP-62 NSCLC) of the same compound?
Its GI50 is 453 nM.

And the TGI (HOP-62 NSCLC)?
The TGI was 17600 nM.

What about the GI50 (HOP-92 NSCLC) of the same compound?
The GI50 was 193 nM.

What about the TGI (HOP-92 NSCLC) of the same compound?
The TGI was 6120 nM.

And the GI50 (HS 578T breast)?
Its GI50 is 385 nM.

And the TGI (HS 578T breast)?
The TGI was 13000 nM.

What about the GI50 (HT29 colon) of the same compound?
Its GI50 is 351 nM.

And the TGI (HT29 colon)?
Its TGI is 11200 nM.

And the GI50 (IGROV1 ovarian)?
The GI50 was 401 nM.

And the TGI (IGROV1 ovarian)?
Its TGI is 14100 nM.

What about the GI50 (K-562 leukemia) of the same compound?
The GI50 was 292 nM.

What about the TGI (K-562 leukemia) of the same compound?
The TGI was 13600 nM.

What about the GI50 (KM12 colon) of the same compound?
Its GI50 is 384 nM.

And the TGI (KM12 colon)?
Its TGI is 13500 nM.

What about the GI50 (LOX IMVI melanoma) of the same compound?
The GI50 was 732 nM.

What about the TGI (LOX IMVI melanoma) of the same compound?
The TGI was 11100 nM.

And the GI50 (M14 melanoma)?
Its GI50 is 292 nM.

What about the TGI (M14 melanoma) of the same compound?
The TGI was 12800 nM.

And the GI50 (MALME-3M melanoma)?
The GI50 was 542 nM.

And the TGI (MALME-3M melanoma)?
Its TGI is 23800 nM.

What about the GI50 (MCF7 breast) of the same compound?
The GI50 was 361 nM.

And the TGI (MCF7 breast)?
The TGI was 12500 nM.

And the GI50 (MDA-MB-231 breast)?
The GI50 was 664 nM.

And the TGI (MDA-MB-231 breast)?
The TGI was 14300 nM.

What about the GI50 (MDA-MB-435) of the same compound?
Its GI50 is 160 nM.

And the TGI (MDA-MB-435)?
Its TGI is 446 nM.

And the GI50 (MOLT-4 leukemia)?
Its GI50 is 629 nM.

What about the TGI (MOLT-4 leukemia) of the same compound?
Its TGI is 13400 nM.

And the GI50 (NCI-H226 lung)?
The GI50 was 1030 nM.

What about the TGI (NCI-H226 lung) of the same compound?
The TGI was 11600 nM.

What about the GI50 (NCI-H23 lung) of the same compound?
Its GI50 is 763 nM.

And the TGI (NCI-H23 lung)?
The TGI was 14400 nM.

What about the GI50 (NCI-H460 lung) of the same compound?
The GI50 was 379 nM.

And the TGI (NCI-H460 lung)?
Its TGI is 5260 nM.

And the GI50 (NCI-H522 lung)?
The GI50 was 209 nM.

What about the TGI (NCI-H522 lung) of the same compound?
The TGI was 5610 nM.

What about the GI50 (NCI/ADR-RES ovarian) of the same compound?
Its GI50 is 226 nM.

What about the TGI (NCI/ADR-RES ovarian) of the same compound?
The TGI was 3660 nM.

And the GI50 (OVCAR-3 ovarian)?
The GI50 was 454 nM.

And the TGI (OVCAR-3 ovarian)?
Its TGI is 13000 nM.

And the GI50 (OVCAR-4 ovarian)?
Its GI50 is 1570 nM.

What about the TGI (OVCAR-4 ovarian) of the same compound?
The TGI was 17800 nM.

What about the GI50 (OVCAR-5 ovarian) of the same compound?
The GI50 was 670 nM.

What about the TGI (OVCAR-5 ovarian) of the same compound?
Its TGI is 14600 nM.

And the GI50 (OVCAR-8 ovarian)?
Its GI50 is 508 nM.

And the TGI (OVCAR-8 ovarian)?
The TGI was 15300 nM.

What about the GI50 (PC-3 prostate) of the same compound?
The GI50 was 236 nM.

And the TGI (PC-3 prostate)?
Its TGI is 11400 nM.

And the GI50 (RPMI-8226 leukemia)?
Its GI50 is 331 nM.

What about the TGI (RPMI-8226 leukemia) of the same compound?
Its TGI is 5520 nM.

And the GI50 (RXF 393 renal)?
The GI50 was 177 nM.

What about the TGI (RXF 393 renal) of the same compound?
The TGI was 531 nM.

And the GI50 (SF-268 CNS)?
The GI50 was 2030 nM.

And the TGI (SF-268 CNS)?
Its TGI is 17400 nM.

What about the GI50 (SF-295 CNS) of the same compound?
The GI50 was 270 nM.

What about the TGI (SF-295 CNS) of the same compound?
The TGI was 2600 nM.

What about the GI50 (SF-539 CNS) of the same compound?
Its GI50 is 280 nM.

And the TGI (SF-539 CNS)?
The TGI was 1230 nM.

What about the GI50 (SK-MEL-2 melanoma) of the same compound?
The GI50 was 597 nM.

And the TGI (SK-MEL-2 melanoma)?
The TGI was 21500 nM.

And the GI50 (SK-MEL-28 melanoma)?
Its GI50 is 1280 nM.

What about the TGI (SK-MEL-28 melanoma) of the same compound?
Its TGI is 19700 nM.

And the GI50 (SK-MEL-5 melanoma)?
Its GI50 is 482 nM.

And the TGI (SK-MEL-5 melanoma)?
Its TGI is 11400 nM.

And the GI50 (SK-OV-3 ovarian)?
The GI50 was 812 nM.

What about the TGI (SK-OV-3 ovarian) of the same compound?
The TGI was 21600 nM.

What about the GI50 (SN12C renal) of the same compound?
The GI50 was 609 nM.

And the TGI (SN12C renal)?
The TGI was 12800 nM.

And the GI50 (SNB-19 CNS)?
The GI50 was 466 nM.

And the TGI (SNB-19 CNS)?
Its TGI is 15800 nM.

What about the GI50 (SNB-75 CNS) of the same compound?
Its GI50 is 206 nM.

And the TGI (SNB-75 CNS)?
Its TGI is 2830 nM.

And the GI50 (SR leukemia)?
Its GI50 is 451 nM.

What about the TGI (SR leukemia) of the same compound?
The TGI was 14900 nM.

And the GI50 (SW-620 colon)?
Its GI50 is 478 nM.

What about the TGI (SW-620 colon) of the same compound?
The TGI was 13400 nM.

And the GI50 (T-47D breast)?
Its GI50 is 440 nM.

And the TGI (T-47D breast)?
Its TGI is 26500 nM.

And the GI50 (TK-10 renal)?
Its GI50 is 8080 nM.

And the TGI (TK-10 renal)?
Its TGI is 24000 nM.

What about the GI50 (U251 CNS) of the same compound?
Its GI50 is 468 nM.

What about the TGI (U251 CNS) of the same compound?
Its TGI is 11800 nM.

And the GI50 (UACC-257 melanoma)?
The GI50 was 12700 nM.

And the TGI (UACC-257 melanoma)?
The TGI was 31300 nM.

What about the GI50 (UACC-62 melanoma) of the same compound?
The GI50 was 371 nM.

And the TGI (UACC-62 melanoma)?
Its TGI is 17600 nM.

And the GI50 (UO-31 renal)?
The GI50 was 637 nM.

And the TGI (UO-31 renal)?
Its TGI is 17000 nM.
